Measurements published in US3960877A, “N-monosubstituted-2,3-pyridinedicarboxamides, and related compounds” (priority 1974, dated 1976).

Legend:
Format in all cases: in vivo
[1] = system: Johnsongrass; assay: Postemergence herbicidal activity, % control of plant growth; settings: Sorghum halepense, post-emergence, 264 h, 8 lb/acre, about 11 days
Excerpt: (§1) By the term "postemergence" is meant that the compound is applied to the plant sought to be controlled after it has emerged from the soil surface. This term is also used to describe the application of herbicidally active compounds to soil surface in and around growing plants sought to be controlled for purposes of effecting root absorption by the undesirable plant species.
(§2) In the postemergence test the soil and developing plants were sprayed approximately 2 weeks after the seeds were sown. The compound was applied at the rate of 8 pounds per acre from about a 2 percent by weight solution of the test compound in acetone and/or alcohol. The postemergence herbicidal activity was measured in the same way as the preemergence activity; i.e. visual observation approximately 11 days after spraying, and expressed as the percent control of plant growth.
(§3) **Postemergence test: compound applied at rate of 8 lb/acre

[2] = system: Velvetleaf; assay: as above; settings: Abutilon theophrasti, post-emergence, 264 h, 8 lb/acre, about 11 days
Excerpt: as §1, §2, §3

[3] = system: Cheatgrass; assay: as above; settings: Bromus tectorum, post-emergence, 264 h, 8 lb/acre, about 11 days
Excerpt: as §1, §2, §3

[4] = system: Nutgrass; assay: as above; settings: post-emergence, 264 h, 8 lb/acre, about 11 days
Excerpt: as §1, §2, §3

[5] = system: Cucumber; assay: as above; settings: Cucumis sativus, post-emergence, 264 h, 8 lb/acre, about 11 days
Excerpt: as §1, §2, §3

[6] = system: Wild Oats; assay: as above; settings: Avena fatua, post-emergence, 264 h, 8 lb/acre, about 11 days
Excerpt: as §1, §2, §3

[7] = system: Corn; assay: as above; settings: Zea mays, post-emergence, 264 h, 8 lb/acre, about 11 days
Excerpt: as §1, §2, §3

[8] = system: Pigweed; assay: as above; settings: Amaranthus retroflexus, post-emergence, 264 h, 8 lb/acre, about 11 days
Excerpt: as §1, §2, §3

[9] = system: Lambsquarters; assay: as above; settings: Chenopodium album, post-emergence, 264 h, 8 lb/acre, about 11 days
Excerpt: as §1, §2, §3

[10] = system: Curled Dock; assay: as above; settings: post-emergence, 264 h, 8 lb/acre, about 11 days
Excerpt: as §1, §2, §3

[11] = system: Chickweed; assay: as above; settings: post-emergence, 264 h, 8 lb/acre, about 11 days
Excerpt: as §1, §2, §3

[12] = system: Snapbeans; assay: as above; settings: post-emergence, 264 h, 8 lb/acre, about 11 days
Excerpt: as §1, §2, §3

[13] = system: Alfalfa; assay: as above; settings: Medicago sativa, post-emergence, 264 h, 8 lb/acre, about 11 days
Excerpt: as §1, §2, §3

[14] = system: Barnyard Grass; assay: as above; settings: Echinochloa crus-galli, post-emergence, 264 h, 8 lb/acre, about 11 days
Excerpt: as §1, §2, §3

[15] = system: Foxtail; assay: as above; settings: Setaria, post-emergence, 264 h, 8 lb/acre, about 11 days
Excerpt: as §1, §2, §3

[16] = system: Yellow Rocket; assay: as above; settings: post-emergence, 264 h, 8 lb/acre, about 11 days
Excerpt: as §1, §2, §3

[17] = system: Crabgrass; assay: as above; settings: Digitaria sanguinalis, post-emergence, 264 h, 8 lb/acre, about 11 days
Excerpt: as §1, §2, §3

[18] = system: Johnsongrass; assay: Preemergence herbicidal activity, % control of plant growth; settings: Sorghum halepense, pre-emergence, 504 h, 16 lb/acre, about 3 weeks
Excerpt: (§4) By "preemergence" is meant that the compound is applied to the soil prior to emergence of the weed species sought to be controlled. This term, as used herein, also means the application of the herbicidal compounds falling within the scope of this disclosure to areas wherein useful or desirable plants are either growing or have been sown, but where the undesirable plants sought to be controlled have not as yet emerged.
(§5) In using the compound, seeds of the types of plants set forth in Table II were sown in fresh soil. In the preemergence test the soil was sprayed with a solution of the test compound immediately after the seeds were planted, and before any noticeable growth developed. The solution was about a 2 percent by weight solution of the compound in acetone and/or alcohol. The compound was applied at the rate of 16 pounds per acre of soil surface.
(§6) Approximately 3 weeks after spray application, the herbicidal activity of the compound was determined by visual observation of the treated area in comparison with untreated control areas. These observations are reported below in Table II wherein the average activity rating is reported as the percent control of plant growth.
(§7) *Preemergence test: compound applied at rate of 16 lb/acre

[19] = system: Velvetleaf; assay: as above; settings: Abutilon theophrasti, pre-emergence, 504 h, 16 lb/acre, about 3 weeks
Excerpt: as §4, §5, §6, §7

[20] = system: Cheatgrass; assay: as above; settings: Bromus tectorum, pre-emergence, 504 h, 16 lb/acre, about 3 weeks
Excerpt: as §4, §5, §6, §7

[21] = system: Nutgrass; assay: as above; settings: pre-emergence, 504 h, 16 lb/acre, about 3 weeks
Excerpt: as §4, §5, §6, §7

[22] = system: Cucumber; assay: as above; settings: Cucumis sativus, pre-emergence, 504 h, 16 lb/acre, about 3 weeks
Excerpt: as §4, §5, §6, §7

[23] = system: Wild Oats; assay: as above; settings: Avena fatua, pre-emergence, 504 h, 16 lb/acre, about 3 weeks
Excerpt: as §4, §5, §6, §7

[24] = system: Corn; assay: as above; settings: Zea mays, pre-emergence, 504 h, 16 lb/acre, about 3 weeks
Excerpt: as §4, §5, §6, §7

[25] = system: Pigweed; assay: as above; settings: Amaranthus retroflexus, pre-emergence, 504 h, 16 lb/acre, about 3 weeks
Excerpt: as §4, §5, §6, §7

[26] = system: Lambsquarters; assay: as above; settings: Chenopodium album, pre-emergence, 504 h, 16 lb/acre, about 3 weeks
Excerpt: as §4, §5, §6, §7

[27] = system: Curled Dock; assay: as above; settings: pre-emergence, 504 h, 16 lb/acre, about 3 weeks
Excerpt: as §4, §5, §6, §7

[28] = system: Chickweed; assay: as above; settings: pre-emergence, 504 h, 16 lb/acre, about 3 weeks
Excerpt: as §4, §5, §6, §7

[29] = system: Snapbeans; assay: as above; settings: pre-emergence, 504 h, 16 lb/acre, about 3 weeks
Excerpt: as §4, §5, §6, §7

[30] = system: Alfalfa; assay: as above; settings: Medicago sativa, pre-emergence, 504 h, 16 lb/acre, about 3 weeks
Excerpt: as §4, §5, §6, §7

[31] = system: Foxtail; assay: as above; settings: Setaria, pre-emergence, 504 h, 16 lb/acre, about 3 weeks
Excerpt: as §4, §5, §6, §7

[32] = system: Yellow Rocket; assay: as above; settings: pre-emergence, 504 h, 16 lb/acre, about 3 weeks
Excerpt: as §4, §5, §6, §7

[33] = system: Crabgrass; assay: as above; settings: Digitaria sanguinalis, pre-emergence, 504 h, 16 lb/acre, about 3 weeks
Excerpt: as §4, §5, §6, §7

[34] = system: Barnyard Grass; assay: as above; settings: Echinochloa crus-galli, pre-emergence, 504 h; barnyard grass; 16 lb/acre; about 3 weeks
Excerpt: as §4, §5, §6, §7

SMILES | pest or weed control at 8966.8 g/ha [1] [%] | pest or weed control at 8966.8 g/ha [2] [%] | pest or weed control at 8966.8 g/ha [3] [%] | pest or weed control at 8966.8 g/ha [4] [%] | pest or weed control at 8966.8 g/ha [5] [%] | plant injury at 8966.8 g/ha [7] [%] | pest or weed control at 8966.8 g/ha [9] [%] | pest or weed control at 8966.8 g/ha [10] [%] | pest or weed control at 8966.8 g/ha [11] [%] | pest or weed control at 8966.8 g/ha [12] [%] | pest or weed control at 8966.8 g/ha [13] [%] | pest or weed control at 8966.8 g/ha [14] [%] | pest or weed control at 8966.8 g/ha [15] [%] | pest or weed control at 8966.8 g/ha [17] [%] | pest or weed control at 17933.6 g/ha [18] [%] | pest or weed control at 17933.6 g/ha [19] [%] | pest or weed control at 17933.6 g/ha [20] [%] | pest or weed control at 17933.6 g/ha [21] [%] | pest or weed control at 17933.6 g/ha [22] [%] | pest or weed control at 17933.6 g/ha [23] [%] | further results
O=c1[nH]c2cccnc2c(=O)n1C1CCCCCCC1 [3-cyclooctyl-pyrido[3,2-d]pyrimidine-2,4(1H,3H)-dione] | 100 | 100 | 30 | 40 | 100 | 0 | 100 | 100 | 100 | 90 | 60 | 90 | 80 | 100 | 100 | 100 | 100 | 20 | 90 | 100 | pest or weed control at 8966.8 g/ha [6]: 40%; pest or weed control at 8966.8 g/ha [8]: 100%; pest or weed control at 8966.8 g/ha [16]: 100%; plant injury at 17933.6 g/ha [24]: 50%; pest or weed control at 17933.6 g/ha [25]: 100%; pest or weed control at 17933.6 g/ha [26]: 100%; pest or weed control at 17933.6 g/ha [27]: 100%; pest or weed control at 17933.6 g/ha [28]: 100%; pest or weed control at 17933.6 g/ha [29]: 100%; pest or weed control at 17933.6 g/ha [30]: 100%; pest or weed control at 17933.6 g/ha [31]: 100%; pest or weed control at 17933.6 g/ha [32]: 100%; pest or weed control at 17933.6 g/ha [33]: 100%
O=c1[nH]c2cccnc2c(=O)n1C1CC1 [3-cyclopropyl pyrido[3,2-d]pyrimidine-2,4(1H,3H)-dione] | 0 | 0 | 0 | 0 | 20 | 0 | 100 | 10 | 100 | 0 | 0 | 0 | 0 | 10 | 10 | 100 | 100 | 0 | 100 | 80 | pest or weed control at 8966.8 g/ha [8]: 90%; pest or weed control at 8966.8 g/ha [16]: 100%; plant injury at 17933.6 g/ha [24]: 10%; pest or weed control at 17933.6 g/ha [25]: 100%; pest or weed control at 17933.6 g/ha [26]: 100%; pest or weed control at 17933.6 g/ha [27]: 100%; pest or weed control at 17933.6 g/ha [28]: 100%; pest or weed control at 17933.6 g/ha [29]: 100%; pest or weed control at 17933.6 g/ha [30]: 100%; pest or weed control at 17933.6 g/ha [34]: 10%; pest or weed control at 17933.6 g/ha [31]: 10%; pest or weed control at 17933.6 g/ha [32]: 100%; pest or weed control at 17933.6 g/ha [33]: 100%
O=c1[nH]c2nccnc2c(=O)n1C1CCCCCCC1 [Lumazine, 3-cyclooctyl] | 100 | 100 | 0 | 10 | 100 | 10 | 100 | 100 | 100 | 100 | 10 | 90 | 50 | 100 | 90 | 100 | 100 | 30 | 100 | 100 | pest or weed control at 8966.8 g/ha [6]: 10%; pest or weed control at 8966.8 g/ha [16]: 100%; plant injury at 17933.6 g/ha [24]: 30%; pest or weed control at 17933.6 g/ha [25]: 100%; pest or weed control at 17933.6 g/ha [26]: 100%; pest or weed control at 17933.6 g/ha [27]: 100%; pest or weed control at 17933.6 g/ha [28]: 100%; pest or weed control at 17933.6 g/ha [29]: 100%; pest or weed control at 17933.6 g/ha [30]: 100%; pest or weed control at 17933.6 g/ha [34]: 70%; pest or weed control at 17933.6 g/ha [31]: 40%; pest or weed control at 17933.6 g/ha [32]: 100%; pest or weed control at 17933.6 g/ha [33]: 90%
CC(C)n1c(=O)[nH]c2nccnc2c1=O [Lumazine, 3-isopropyl] | 0 | 0 | 0 | 0 | 10 | 0 | 40 | 0 | 0 | 30 | 0 | 0 | 0 | 0 | 70 | 100 | 10 | 0 | 100 | 10 | pest or weed control at 8966.8 g/ha [6]: 0%; pest or weed control at 8966.8 g/ha [8]: 0%; plant injury at 17933.6 g/ha [24]: 10%; pest or weed control at 17933.6 g/ha [25]: 100%; pest or weed control at 17933.6 g/ha [26]: 100%; pest or weed control at 17933.6 g/ha [27]: 100%; pest or weed control at 17933.6 g/ha [28]: 60%; pest or weed control at 17933.6 g/ha [29]: 90%; pest or weed control at 17933.6 g/ha [30]: 100%; pest or weed control at 17933.6 g/ha [34]: 0%; pest or weed control at 17933.6 g/ha [31]: 10%; pest or weed control at 17933.6 g/ha [32]: 100%; pest or weed control at 17933.6 g/ha [33]: 70%
